Results from ChEMBL document CHEMBL1154976 (Bioorg Med Chem Lett, 2010).

Key:
[1] = molecular target: Kappa-type opioid receptor (Homo sapiens, UniProt P41145); assay: Displacement of [3H]U69,593 from human kappa opioid receptor expressed in CHO cell membranes after 60 mins by scintillation counting
[2] = molecular target: Delta-type opioid receptor (Homo sapiens, UniProt P41143); assay: Displacement of [3H]naltrindole from human delta opioid receptor expressed in CHO cell membranes after 3 hrs by scintillation counting
Delta-type opioid receptor, sequence (P41143 whole entry): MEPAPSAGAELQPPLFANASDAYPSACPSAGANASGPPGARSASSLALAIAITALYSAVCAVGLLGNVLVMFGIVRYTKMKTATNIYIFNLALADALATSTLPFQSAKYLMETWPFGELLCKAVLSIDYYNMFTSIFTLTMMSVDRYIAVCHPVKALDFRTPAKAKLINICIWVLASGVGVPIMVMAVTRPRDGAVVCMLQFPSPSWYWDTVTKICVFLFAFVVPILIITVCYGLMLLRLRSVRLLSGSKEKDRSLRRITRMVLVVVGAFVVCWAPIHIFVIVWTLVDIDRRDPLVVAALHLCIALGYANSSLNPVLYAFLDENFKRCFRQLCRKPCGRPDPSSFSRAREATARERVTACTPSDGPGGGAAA

[3] = molecular target: Mu-type opioid receptor (Homo sapiens, UniProt P35372); assay: Displacement of [3H]DAMGO from human mu opioid receptor expressed in CHO cell membranes after 60 mins by scintillation counting
Mu-type opioid receptor, sequence (P35372 whole entry): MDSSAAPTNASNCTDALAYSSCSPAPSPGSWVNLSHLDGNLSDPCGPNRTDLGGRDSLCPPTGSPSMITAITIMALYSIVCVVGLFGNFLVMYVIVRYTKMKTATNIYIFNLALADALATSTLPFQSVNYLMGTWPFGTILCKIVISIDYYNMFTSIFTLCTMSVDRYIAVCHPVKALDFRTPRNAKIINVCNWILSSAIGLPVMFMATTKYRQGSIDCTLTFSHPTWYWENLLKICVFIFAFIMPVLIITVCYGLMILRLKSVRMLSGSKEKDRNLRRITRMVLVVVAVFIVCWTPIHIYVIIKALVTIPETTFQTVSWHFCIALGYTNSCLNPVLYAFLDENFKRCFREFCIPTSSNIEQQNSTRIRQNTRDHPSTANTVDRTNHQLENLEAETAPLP

[4] = species on record: Homo sapiens; assay: Selectivity ratio of Ki for human delta opioid receptor to Ki for human mu opioid receptor
[5] = species on record: Homo sapiens; assay: Selectivity ratio of Ki for human kappa opioid receptor to Ki for human mu opioid receptor
[6] = species on record: Homo sapiens; assay: Selectivity ratio of Ki for human delta opioid receptor to Ki for human kappa opioid receptor
[7] = species on record: Homo sapiens; assay: Selectivity ratio of Ki for human mu opioid receptor to Ki for human kappa opioid receptor

Kappa-type opioid receptor, sequence (P41145 whole entry): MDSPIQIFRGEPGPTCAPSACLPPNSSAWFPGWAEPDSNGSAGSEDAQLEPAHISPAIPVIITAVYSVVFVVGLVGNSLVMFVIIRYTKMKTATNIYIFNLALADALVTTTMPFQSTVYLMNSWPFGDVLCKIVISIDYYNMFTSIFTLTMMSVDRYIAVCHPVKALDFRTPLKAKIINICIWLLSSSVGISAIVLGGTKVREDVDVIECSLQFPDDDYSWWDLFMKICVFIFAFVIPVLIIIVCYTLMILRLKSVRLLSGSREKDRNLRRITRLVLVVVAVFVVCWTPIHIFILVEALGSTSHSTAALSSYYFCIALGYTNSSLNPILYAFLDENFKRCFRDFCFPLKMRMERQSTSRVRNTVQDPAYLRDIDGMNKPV

Row | SMILES | Ki [1] | Ki [2] | Ki [3] | Ratio Ki [4] | Ratio Ki [5] | Ratio Ki [6] | Ratio Ki [7]
1 | OC(COc1ccc(Cc2ccc(OCC(O)COc3ccc4c(c3)[C@@]35CCCC[C@H]3[C@@H](C4)N(CC3CCC3)CC5)cc2)cc1)COc1ccc2c(c1)[C@@]13CCCC[C@H]1[C@@H](C2)N(CC1CCC1)CC3 (stereo partly specified) | 0.34 nM | 29 nM | 0.24 nM | 121 | 1.4 |  | 
2 | c1cc2c(cc1OCC1CO1)[C@@]13CCCC[C@H]1[C@@H](C2)N(CC1CCC1)CC3 (stereo partly specified) | 36 nM | 200 nM | 7.3 nM | 27 | 5 |  | 
3 | OC(COc1ccccc1)COc1ccc2c(c1)[C@@]13CCCC[C@H]1[C@@H](C2)N(CC1CCC1)CC3 (stereo partly specified) | 22 nM | 86 nM | 6.5 nM | 13 | 13 |  | 
4 | OC(CCCCCCC(O)COc1ccc2c(c1)[C@@]13CCCC[C@H]1[C@@H](C2)N(CC1CCC1)CC3)COc1ccc2c(c1)[C@@]13CCCC[C@H]1[C@@H](C2)N(CC1CCC1)CC3 (stereo partly specified) | 1.4 nM | 27 nM | 2.4 nM |  |  | 19 | 1.7
5 | OC(COc1ccc2c(c1)[C@@]13CCCC[C@H]1[C@@H](C2)N(CC1CCC1)CC3)CC(O)COc1ccc2c(c1)[C@@]13CCCC[C@H]1[C@@H](C2)N(CC1CCC1)CC3 (stereo partly specified) | 0.17 nM | 33 nM | 1.2 nM |  |  | 194 | 7
6 | CCCCCCCCCC(=O)Oc1ccc2c(c1)[C@@]13CCCC[C@H]1[C@@H](C2)N(CC1CCC1)CC3 | 0.2 nM | 20 nM | 0.21 nM | 100 |  | 100 | 
7 | CCCCCCCCCCOc1ccc2c(c1)[C@@]13CCCC[C@H]1[C@@H](C2)N(CC1CCC1)CC3 |  |  | 70 nM |  |  |  | 1.3
8 | OC(CCCC(O)COc1ccc2c(c1)[C@@]13CCCC[C@H]1[C@@H](C2)N(CC1CCC1)CC3)COc1ccc2c(c1)[C@@]13CCCC[C@H]1[C@@H](C2)N(CC1CCC1)CC3 (stereo partly specified) | 9.8 nM | 160 nM | 12 nM |  |  | 16 | 1.2
9 | OC(CCCCC(O)COc1ccc2c(c1)[C@@]13CCCC[C@H]1[C@@H](C2)N(CC1CCC1)CC3)COc1ccc2c(c1)[C@@]13CCCC[C@H]1[C@@H](C2)N(CC1CCC1)CC3 (stereo partly specified) | 3.3 nM | 74 nM | 3.2 nM | 23 |  | 23 | 
10 | c1cc2c(cc1OCCCCOc1ccc3c(c1)[C@@]14CCCC[C@H]1[C@@H](C3)N(CC1CCC1)CC4)[C@@]13CCCC[C@H]1[C@@H](C2)N(CC1CCC1)CC3 |  |  |  |  |  | 40 | 1.6
11 | c1cc2c(cc1OCCCOc1ccc3c(c1)[C@@]14CCCC[C@H]1[C@@H](C3)N(CC1CCC1)CC4)[C@@]13CCCC[C@H]1[C@@H](C2)N(CC1CCC1)CC3 | 6.2 nM | 180 nM | 7.1 nM |  |  | 29 | 1.1
12 | OC(CCC(O)COc1ccc2c(c1)[C@@]13CCCC[C@H]1[C@@H](C2)N(CC1CCC1)CC3)COc1ccc2c(c1)[C@@]13CCCC[C@H]1[C@@H](C2)N(CC1CCC1)CC3 (stereo partly specified) | 12 nM | 420 nM | 17 nM |  |  | 35 | 1.4
13 | CCCCCCCCC(O)COc1ccc2c(c1)[C@@]13CCCC[C@H]1[C@@H](C2)N(CC1CCC1)CC3 (stereo partly specified) | 8.3 nM | 52 nM | 7.4 nM | 7 | 1.1 |  | 
14 | OC(COc1ccc2c(c1)[C@@]13CCCC[C@H]1[C@@H](C2)N(CC1CCC1)CC3)COc1ccc2c(c1)[C@@]13CCCC[C@H]1[C@@H](C2)N(CC1CCC1)CC3 | 0.99 nM | 37 nM | 0.95 nM | 39 |  | 39 | 
15 | OC(CCCCCC(O)COc1ccc2c(c1)[C@@]13CCCC[C@H]1[C@@H](C2)N(CC1CCC1)CC3)COc1ccc2c(c1)[C@@]13CCCC[C@H]1[C@@H](C2)N(CC1CCC1)CC3 (stereo partly specified) | 3.9 nM | 99 nM | 4.8 nM |  |  | 25 | 1.2
16 | c1cc2c(cc1OCCCCCCCCCCOc1ccc3c(c1)[C@@]14CCCC[C@H]1[C@@H](C3)N(CC1CCC1)CC4)[C@@]13CCCC[C@H]1[C@@H](C2)N(CC1CCC1)CC3 |  |  |  | 38 | 1.8 |  | 
